This note sets out measurements from patent publication US8178668B2, “2-aminopyridine kinase inhibitors” (OSI Pharmaceuticals, LLC, priority 2008, dated 2012).

The target of one assay is MET (human) (Homo sapiens, UniProt P08581). As to the kind of experiment: MET kinase AlphaScreen assay (Km of ATP). It counts as biochemical. To be noted: ATP at Km; at least duplicate experiments. As to the method:
(§1) Person skilled in the art will appreciate that a variety of assay formats may be used to determine the activity of the compounds of this invention. For example, AlphaScreen (Amplified Luminescent Proximity Homogeneous Assay) technology was used with the kinases described below. Assay ATP concentrations for individual kinases are included in the text.
MET (human)—Km of ATP: MET assay is performed in a 384 well assay containing 200 ng/μL biotinylated poly(Glu,Tyr), 0.334 mM vanadate, desired concentration of ATP optimized for the enzyme in assay buffer (50 mM HEPES (pH=7.4), 5 mM MgCl2, 5 mM MnCl2, and 1% glycerol). Desired compound is added in a final concentration of 1% DMSO with control being vehicle of DMSO alone. MET is diluted to the optimized concentration (optimized on a lot-by-lot basis) in an enzyme diluent buffer (50 mM Tris pH=7.4, 1% glycerol, 0.03% Brij35, 0.24 mM EGTA, 1 mM DTT, and 0.003% BSA). Enzyme is added to initiate the reaction and incubated for 60 min at RT. In subdued light, appropriate amount of PT66 donor and acceptor beads (diluted 1:260 from manufacturer's provision in a 25 mM Tris HCl (pH=7.5), 400 mM NaCl, 100 mM EDTA, 0.3% BSA buffer) are added to the wells. The plates, incubated for 1 h, are read on an AlphaQuest plate reader
On the technique in general: In Alpha technology, singlet oxygen from a donor bead excites a nearby acceptor bead.

The next assay has as its target RON (human) (Homo sapiens, UniProt Q04912). The experiment in a line: RON kinase AlphaScreen assay (Km of ATP). The assay is classed as biochemical. To be noted: ATP at Km; at least duplicate experiments. Here is the method: as §1
RON (human)—Km of ATP: RON assay is performed in a 384 well assay containing 200 ng/μL biotinylated poly(Glu,Tyr), 0.334 mM vanadate, desired concentration of ATP optimized for the enzyme in assay buffer (50 mM HEPES (pH=7.4), 12.5 mM MgCl2 and 1% glycerol). Desired compound is added in a final concentration of 1% DMSO with control being vehicle of DMSO alone. RON is diluted to the optimized (on a lot-by-lot basis) concentration in an enzyme diluent buffer (50 mM HEPES pH=7.4, 12.5 mM MgCl2 and 1% glycerol, 0.03% Brij35, 0.3 mM EGTA, lmM DTT, and 0.003% BSA). Enzyme is added to initiate the reaction and incubated for 30 min at RT. In subdued light, appropriate amount of PT66 donor and acceptor beads (diluted 1:260 from manufacturer's provision in a 25 mM Tris HCl (pH=7.5), 200 mM NaCl, 100 mM EDTA, 0.3% BSA buffer) are added to the wells. The plates, incubated for 1 h, are read on an AlphaQuest plate reader.

Structures can show the parent of a compound that is named as a salt. Some results are limits rather than exact numbers.

Chain of MET (human) (P08581 25-1390): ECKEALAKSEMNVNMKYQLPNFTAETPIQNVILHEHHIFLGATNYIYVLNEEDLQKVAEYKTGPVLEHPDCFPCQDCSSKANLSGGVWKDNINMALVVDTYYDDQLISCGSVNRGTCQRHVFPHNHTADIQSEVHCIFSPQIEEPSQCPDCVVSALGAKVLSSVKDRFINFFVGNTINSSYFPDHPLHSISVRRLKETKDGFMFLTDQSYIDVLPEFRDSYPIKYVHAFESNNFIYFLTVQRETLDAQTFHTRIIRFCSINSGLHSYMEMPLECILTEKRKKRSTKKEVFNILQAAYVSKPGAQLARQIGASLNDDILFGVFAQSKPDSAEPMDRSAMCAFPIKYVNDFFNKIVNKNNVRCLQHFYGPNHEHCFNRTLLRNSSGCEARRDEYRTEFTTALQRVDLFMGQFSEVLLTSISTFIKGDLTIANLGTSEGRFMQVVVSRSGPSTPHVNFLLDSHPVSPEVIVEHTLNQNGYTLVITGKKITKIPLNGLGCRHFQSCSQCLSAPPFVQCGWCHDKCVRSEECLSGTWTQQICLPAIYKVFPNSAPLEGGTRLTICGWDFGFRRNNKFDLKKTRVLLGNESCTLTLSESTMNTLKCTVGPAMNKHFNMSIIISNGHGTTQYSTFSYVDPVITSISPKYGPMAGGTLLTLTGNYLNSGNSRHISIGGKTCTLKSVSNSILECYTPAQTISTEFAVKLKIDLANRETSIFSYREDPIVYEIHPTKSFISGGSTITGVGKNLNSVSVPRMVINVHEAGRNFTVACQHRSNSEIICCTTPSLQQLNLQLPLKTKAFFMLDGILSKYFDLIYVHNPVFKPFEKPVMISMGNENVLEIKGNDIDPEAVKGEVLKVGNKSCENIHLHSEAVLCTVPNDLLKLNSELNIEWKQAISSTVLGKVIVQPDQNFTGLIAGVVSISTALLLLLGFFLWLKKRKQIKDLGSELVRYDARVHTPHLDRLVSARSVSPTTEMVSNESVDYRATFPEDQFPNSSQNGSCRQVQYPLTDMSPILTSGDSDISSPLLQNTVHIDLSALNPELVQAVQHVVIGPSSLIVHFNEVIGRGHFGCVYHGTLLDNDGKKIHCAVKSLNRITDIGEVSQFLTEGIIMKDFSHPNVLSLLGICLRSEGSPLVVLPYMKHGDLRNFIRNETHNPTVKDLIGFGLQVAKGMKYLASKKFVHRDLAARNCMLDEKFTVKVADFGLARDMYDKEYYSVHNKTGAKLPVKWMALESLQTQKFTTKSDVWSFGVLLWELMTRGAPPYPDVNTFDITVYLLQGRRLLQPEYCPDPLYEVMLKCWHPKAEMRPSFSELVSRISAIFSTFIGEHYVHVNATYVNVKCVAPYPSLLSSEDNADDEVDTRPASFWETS
Chain of RON (human) (Q04912 25-1400): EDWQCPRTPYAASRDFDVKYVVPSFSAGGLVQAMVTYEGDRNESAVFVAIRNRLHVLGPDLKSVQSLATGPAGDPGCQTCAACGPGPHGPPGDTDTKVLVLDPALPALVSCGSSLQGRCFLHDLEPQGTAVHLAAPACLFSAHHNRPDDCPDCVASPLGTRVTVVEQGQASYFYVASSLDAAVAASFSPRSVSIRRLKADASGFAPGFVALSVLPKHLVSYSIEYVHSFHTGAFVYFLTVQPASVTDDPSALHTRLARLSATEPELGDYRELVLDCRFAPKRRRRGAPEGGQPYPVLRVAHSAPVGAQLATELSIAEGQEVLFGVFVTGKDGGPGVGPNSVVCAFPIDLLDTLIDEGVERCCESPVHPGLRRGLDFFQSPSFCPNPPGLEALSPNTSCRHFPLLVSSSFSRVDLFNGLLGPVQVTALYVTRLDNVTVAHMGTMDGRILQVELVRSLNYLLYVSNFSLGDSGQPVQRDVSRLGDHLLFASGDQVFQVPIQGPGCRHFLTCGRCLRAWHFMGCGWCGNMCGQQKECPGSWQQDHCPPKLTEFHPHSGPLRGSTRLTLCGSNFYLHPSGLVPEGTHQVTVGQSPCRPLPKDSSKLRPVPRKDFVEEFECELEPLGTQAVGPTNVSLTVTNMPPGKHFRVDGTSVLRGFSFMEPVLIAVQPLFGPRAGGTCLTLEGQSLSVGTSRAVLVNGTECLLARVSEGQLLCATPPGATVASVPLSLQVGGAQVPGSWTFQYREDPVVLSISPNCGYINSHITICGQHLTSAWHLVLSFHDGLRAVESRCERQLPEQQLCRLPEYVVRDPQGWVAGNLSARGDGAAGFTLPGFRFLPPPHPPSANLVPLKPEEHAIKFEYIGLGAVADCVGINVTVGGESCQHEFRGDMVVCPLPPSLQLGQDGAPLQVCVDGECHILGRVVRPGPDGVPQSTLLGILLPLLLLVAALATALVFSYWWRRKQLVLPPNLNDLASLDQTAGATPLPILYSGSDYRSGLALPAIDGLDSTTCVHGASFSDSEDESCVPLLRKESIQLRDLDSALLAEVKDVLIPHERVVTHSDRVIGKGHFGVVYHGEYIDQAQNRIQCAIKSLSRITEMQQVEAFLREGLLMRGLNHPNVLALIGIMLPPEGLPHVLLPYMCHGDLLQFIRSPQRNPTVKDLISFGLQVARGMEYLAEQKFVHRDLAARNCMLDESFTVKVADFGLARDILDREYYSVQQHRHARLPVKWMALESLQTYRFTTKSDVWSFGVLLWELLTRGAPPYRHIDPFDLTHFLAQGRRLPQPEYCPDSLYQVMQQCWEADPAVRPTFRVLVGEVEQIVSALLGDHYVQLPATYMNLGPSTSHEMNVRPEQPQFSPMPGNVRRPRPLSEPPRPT

In general, IC50 refers to the point on the concentration scale where inhibition reaches its midpoint. A lower IC50 goes with higher potency. Consider `CNC(=O)Cn1cc(-c2cnc(N)c(-c3nc4ccccc4s3)c2)cn1` [Example 137, 2-[4-(6-Amino-5-benzothiazol-2-ylpyridin-3-yl)-pyrazol-1-yl]-N-methylacetamide], for which the IC50 against MET (human) and against RON (human) was > 20 µM in each case.

Consider `Nc1ncc(-c2cnn([C@@H]3CN[C@H](C(=O)N4CCCC4)C3)c2)cc1-c1cc2c(Cl)ccc(F)c2cn1` [Example 73, ((2S,4S)-4-{4-[6-Amino-5-(5-chloro-8-fluoroisoquinolin-3-yl)-pyridin-3-yl]-pyrazol-1-yl}-pyrrolidin-2-yl)-pyrrolidin-1-ylmethanone], for which the IC50 against MET (human) and at RON (human) was 0.1 to 1 µM in each case.

For `Nc1ncc(-c2cnn(C3CCNCC3)c2)cc1-c1nc2cccc(F)c2s1` [Example 270, 3-(7-Fluorobenzothiazol-2-yl)-5-(1-piperidin-4-yl-1H-pyrazol-4-yl)-pyridin-2-ylamine], the IC50 against MET (human) and against RON (human) was 0.1 to 1 µM each time.

Consider `Nc1ncc(-c2cnn(C3CCNCC3)c2)cc1-c1cc2cc(F)cc(Cl)c2cn1` [Example 47, 3-(8-Chloro-6-fluoroisoquinolin-3-yl)-5-(1-piperidin-4-yl-1H-pyrazol-4-yl)-pyridin-2-ylamine trihydrochloride salt], for which the IC50 against MET (human) and at RON (human) was 0.1 to 1 µM throughout.

Take `Nc1ncc(-c2cnc(N3CCOCC3)s2)cc1-c1nc2ccccc2s1` [Example 120, 3-Benzothiazol-2-yl-5-(2-morpholin-4-ylthiazol-5-yl)-pyridin-2-ylamine]: the IC50 against MET (human) and on RON (human) was 1 to 20 µM each time.

`CC(C)n1cc(-c2cnc(N)c(-c3nc4ccccc4s3)c2)cn1` [Example 118, 3-Benzothiazol-2-yl-5-(1-isopropyl-1H-pyrazol-4-yl)-pyridin-2-ylamine bis-hydrochloride]: the IC50 against MET (human) and on RON (human) was 0.1 to 1 µM in each case.

Consider `CC(C)n1cc(-c2cnc(N)c(-c3cc4ccccc4o3)c2)cn1` [Example 102, 3-Benzofuran-2-yl-5-(1-isopropyl-1H-pyrazol-4-yl)-pyridin-2-ylamine bis-hydrochloride], for which the concentration for half-maximal inhibition (IC50) on MET (human) is 0.1 to 1 µM; on RON (human), 1 to 20 µM.

For `Nc1ncc(-c2ccc(OCC(=O)NCC3CCCCC3)cc2)cc1-c1nc2ccccc2s1` [Example 245, 2-[4-(6-Amino-5-benzothiazol-2-ylpyridin-3-yl)phenoxy]-N-cyclohexylmethylacetamide], the IC50 on MET (human) is 1 to 20 µM; against RON (human), > 20 µM.

With `Nc1ncc(-c2cnn(C3CCNCC3)c2)cc1-c1cc2c(-c3ccoc3)ccc(F)c2cn1` [Example 49, 3-(8-Fluoro-5-furan-3-ylisoquinolin-3-yl)-5-(1-piperidin-4-yl-1H-pyrazol-4-yl)-pyridin-2-ylamine trihydrochloride], the IC50 against MET (human) was ≤ 0.1 µM; against RON (human) it was 0.1 to 1 µM.

As to `Nc1ncc(-c2cnn(C3CCNCC3)c2)cc1-c1nc2ccccc2o1` [Example 106, 3-Benzoxazol-2-yl-5-(1-piperidin-4-yl-1H-pyrazol-4-yl)-pyridin-2-ylamine dihydrochloride], the IC50 against MET (human) is ≤ 0.1 µM; against RON (human), 0.1 to 1 µM.

Take `Nc1ncc(-c2cccc(C(=O)N3CCCCC3)c2)cc1-c1nc2ccccc2s1` [Example 206, [3-(6-Amino-5-benzothiazol-2-ylpyridin-3-yl)phenyl]piperidin-1-ylmethanone]: the values for the IC50 at MET (human) and at RON (human) were 1 to 20 µM and > 20 µM, respectively.

For the molecule `COCCN1CCC(n2cc(-c3cnc(N)c(-c4nc5ccccc5s4)c3)cn2)CC1` [Example 114, 3-Benzothiazol-2-yl-5-1-[1-(2-methoxyethyl)-piperidin-4-yl]-1H-pyrazol-4-yl-pyridin-2-ylamine], the IC50 at MET (human) and against RON (human) was 0.1 to 1 µM each time.

Take `Nc1ncc(-c2cnn(C3CCNCC3)c2)cc1-c1nc2cccc(-c3cc[nH]c3)c2s1` [Example 251, 5-(1-Piperidin-4-yl-1H-pyrazol-4-yl)-3-[7-(1H-pyrrol-3-yl)benzothiazol-2-yl]pyridin-2-ylamine trifluoroacetate]: the half-maximal inhibitory concentration (IC50) on MET (human) and against RON (human) was 0.1 to 1 µM each time.
